We go through 1 compound from PMC9046208, “Foldamers reveal and validate therapeutic targets associated with toxic α-synuclein self-assembly” (Nature Communications, 2022).

SMILES strings stand for the structures.

Data set [1] is described as follows: Parallel artificial membrane permeability assay (PAMPA). In kind it is in vitro ADME. The following applies: 4% lecithin in dodecane; for permeability Pe: 1x PBS, 500 μM donor, RT, 18 h, UV absorbance. Here is the method:
A parallel artificial membrane permeability assay (PAMPA) Kit (BioAssay Systems, Hayward, CA) was used to measure the membrane permeability of SK-129 according to the manufacturer’s protocol. Briefly, a 4% lecithin solution (LS) was prepared in dodecane and solubilized with constant sonication for 20 min. Then, 5 µL of LS was placed on the donor plate membranes. A 300 μL 1x PBS buffer was applied to the acceptor plate. The solutions of SK-129 and various permeability controls (Highly soluble, medium soluble and low soluble) molecules were added to donor plates (200 μL and 500 μM). The donor plate was placed in the acceptor plate and incubated at RT for 18 h. Then the solutions were removed from the acceptor plate and placed in a clear-bottom 96-well plate (Corning Inc., Corning, NY) and absorbance was recorded at 360 nm for SK-129 and 275 nm for standards. The permeability was calculated using Eq. 2:2 Pe=C×−ln1−ODA/ODEcm/s Where the permeability rate C is 7.72 × 10^−6, ODA is the absorbance of acceptor solution and ODE is absorbance of equilibrium standard.
A general note: The PAMPA barrier holds no transporters, so it reflects passive diffusion.

Another data set concerns the target T1, αS aggregation (Homo sapiens, UniProt P37840).
T1 construct: made in house; host or cells: Escherichia coli BL21(DE3), periplasm
The data set is described as follows: ThT aggregation kinetic assay, de novo, WT αS. The settings on record: 100 μM analog, 100 μM αS. The data set is classed as biochemical. Here is the method:
The aggregation kinetics of αS was monitored using ThT fluorescence assay (λex = 450 nm and λem = 485 nm). To study the aggregation kinetics of αS, the ThT dye at a final concentration of 50 μM was added to 100 μM αS solution in the aggregation buffer (1 x PBS buffer) with and without various concentrations of SK-129 in a Costar black 96–well plate (Corning Inc., Kennebunk, ME). The small molecules were dissolved in dimethyl sulfoxide (DMSO; final DMSO concentration = 0.5%, v/v). The final volume in each well was 140 μL. The plate was incubated at 37 °C with 16 min shaking (434 rpm) and 44 min without shaking in an Infinite M200PRO plate reader (Tecan, Männedorf, Switzerland) and fluorescence was recorded after every hour. We used two methods to quantify the effect of molecules on the aggregation of αS; either we have reported the t50 (time required to reach 50% fluorescence of ThT), which was extracted by fitting the ThT curve as a sigmoidal fit or the absolute ThT fluorescence intensity was reported. […] In the second method, we determined the final ThT fluorescence intensity for the aggregation of αS/Aβ42(with or without ligands) as an average of three separate experiments. […]
The aggregation kinetics of WT αS and αS variants were monitored and was carried out with a slightly modified protocol. […] The aggregation of proteins was monitored at the indicated times (See the main manuscript). […]

Turning to `COC(=O)c1cc(OCC(=O)O)c2cccc(NC(=O)c3cc(OC(C)C)c4cccc(NC(=O)c5cc(OCC(=O)O)c6cccc(NC(=O)c7cc(OC(C)C)c8cccc([N+](=O)[O-])c8n7)c6n5)c4n3)c2n1` [SK-129], the membrane permeation result in data set [1] was “efficiently permeate cell membranes”. Moreover, the “permeability Pe” value in data set [1] (trial 1) amounted to 4.75 ×10⁻⁶ cm/s; in data set [1] (trial 2), 4.45 ×10⁻⁶ cm/s; in data set [1] (trial 3), 4.64 ×10⁻⁶ cm/s; in data set [1] (trial 4) it was 4.65 ×10⁻⁶ cm/s; in data set [1] (trial 5) it was 4.64 ×10⁻⁶ cm/s; in data set [1] (trial 6) it was 4.36 ×10⁻⁶ cm/s. The “permeability Pe” value is 4.67 ×10⁻⁶ cm/s in data set [1] (trial 7) and 4.79 ×10⁻⁶ cm/s in data set [1] (trial 8). The “antagonist activity against αS aggregation among analogs” value on αS aggregation is on record as “most potent antagonist”.
